According to patent US12350270B2, “Antimalarial agents” (Merck Sharp & Dohme LLC, priority 2019, dated 2025):

Columns and labels:
[1] = system: parasites (ring stage, in human red blood cell culture); assay: Parasite LDH growth assay (antiparasite potency, Parasite Assay); type: cell-based, Plasmodium falciparum; conditions: 0.7% rings, 2% haematocrit, 72 hours at 37° C., LDH readout of parasite growth
In short: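 Growth was read by an LDH assay after a freeze–thaw cycle (−80 °C overnight, 4 h thaw at RT). Before that, parasites grew with compound for 72 h at 37 °C under gassed, humidified conditions. The input was a ring-stage culture adjusted to 0.7% parasitemia and 2% haematocrit in serum (5%)/albumax (0.5%)-supplemented RPMI-Hepes.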

[2] = system: PMIX (plasmepsin IX); assay: Inhibition of PMIX function in parasite extracts: cleavage of PMIX substrates RAP1 and ASP, and PMIX autoprocessing; type: cell-based, P. falciparum
Method: To confirm that Example 1 was a dual inhibitor of PMX and PMIX function, the ability of this compound to inhibit cleavage of the known PMIX substrate Rhoptry Associated Protein 1 (RAP1) in parasite extracts was tested (Pino et al., 2017). RAP1 is a merozoite rhoptry protein that is localized to the parasitophorous vacuole after invasion and processed by both PMIX and SUB1 (Pino et al., 2017). […] RAP1 was not released into the parasite supernatant because it was deposited in the parasitophorous vacuole during the invasion process (Baldi, D., Andrews, K., Waller, R., Roos, D., Howard, R., Crabb, B. and Cowman, A. (2000)). RAP1 controls rhoptry targeting of RAP2 in the malaria parasite Plasmodium falciparum. Embo Journal 19, 2435-2443.
The development of Example 1 as a PMIX/PMX dual inhibitor of the P. falciparum parasite has allowed for the analysis of the function of these aspartic acid proteases. To do this, PMIX was processed to a 55 kDa (p55) protein and this was not inhibited by E64.

[3] = target: T1, PMX (plasmepsin X) (Plasmodium falciparum, UniProt Q8IAS0); conditions: negative control, literature (Salmon et al. 2001); cited from earlier work
T1 construct: endogenous in cells

[4] = Plasmodium falciparum, Erythrocyte, 72 h

T1 sequence (Q8IAS0 222-573): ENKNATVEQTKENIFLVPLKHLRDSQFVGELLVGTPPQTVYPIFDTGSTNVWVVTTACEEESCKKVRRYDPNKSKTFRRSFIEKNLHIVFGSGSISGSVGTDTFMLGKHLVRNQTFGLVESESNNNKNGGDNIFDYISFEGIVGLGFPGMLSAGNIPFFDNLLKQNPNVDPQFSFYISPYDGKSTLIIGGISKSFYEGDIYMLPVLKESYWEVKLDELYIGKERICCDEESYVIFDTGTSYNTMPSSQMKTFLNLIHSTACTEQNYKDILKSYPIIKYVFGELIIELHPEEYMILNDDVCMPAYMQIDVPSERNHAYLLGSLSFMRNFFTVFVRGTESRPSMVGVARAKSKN

| Molecule | EC50 [1, 4] [nM] | also measured |
| --- | --- | --- |
| CCC1(CC)CC(=O)N(C2CC(C(=O)N(C)C)Oc3ccc(C(=O)N[C@@H]4c5ccccc5OC(C)(C)[C@H]4O)cc32)C(=N)N1 (stereo partly drawn) [Example 306, 4-(4,4-diethyl-2-imino-6-oxo-hexahydropyrimidin-1-yl)-N6-[(3S,4R)-3-hydroxy-2,2-dimethyl-chroman-4-yl]-N2,N2-dimethyl-chromane-2,6-dicarboxamide] | 27.4 |  |
| CCC1(CC)CC(=O)N([C@H]2c3cc(C(=O)N[C@@H]4c5ccccc5OC(C)(C)[C@H]4O)ccc3OC2(COC)COC)C(=N)N1 [Example 307] | 3.2 |  |
| CCC1(CC)CC(=O)N([C@@H]2C[C@@H](CCCCCCN)Oc3ccc(C(=O)N[C@H]4CC(C)(C)Oc5ccccc54)cc32)C(=N)N1 [Example 308, (2R,4R)-2-(6-aminohexyl)-4-(4,4-diethyl-2-imino-6-oxo-hexahydropyrimidin-1-yl)-N-[(4S)-2,2-dimethylchroman-4-yl]chromane-6-carboxamide] | 40.5 |  |
| CCC1(CC)CC(=O)N([C@@H]2C[C@@H](CCCCCCNC(C)=O)Oc3ccc(C(=O)N[C@H]4CC(C)(C)Oc5ccccc54)cc32)C(=N)N1 [Example 309, (2R,4R)-2-(6-acetamidohexyl)-4-(4,4-diethyl-2-imino-6-oxo-hexahydropyrimidin-l-yl)-N-[(4S)-2,2-dimethylchroman-4-yl]chromane-6-carboxamide] | 3.2 |  |
| CCC1(CC)CC(=O)N([C@@H]2C[C@@H](COCCOCCOCCN)Oc3ccc(C(=O)N[C@H]4CC(C)(C)Oc5ccccc54)cc32)C(=N)N1 [Example 310, (2S,4R)-2-[2-[2-(2-aminoethoxy)ethoxy]ethoxymethyl]-4-(4,4-diethyl-2-imino-6-oxo-hexahydropyrimidin-1-yl)-N-[(4S)-2,2-dimethylchroman-4-yl]chromane-6-carboxamide] | 211 |  |
| CCC1(CC)CC(=O)N([C@@H]2C[C@@H](CCCCCCNC(=O)OC(C)(C)C)Oc3ccc(C(=O)N[C@H]4CC(C)(C)Oc5ccccc54)cc32)C(=N)N1 [Example 311, tert-butyl N-[6-[(2R,4R)-4-(4,4-diethyl-2-imino-6-oxo-hexahydropyrimidin-1-yl)-6-[[(4S)-2,2-dimethylchroman-4-yl]carbamoyl]chroman-2-yl]hexyl]carbamate] | 2.4 |  |
| CCC1(CC)CC(=O)N([C@@H]2C[C@@H](COCCOCCOCCNC(C)=O)Oc3ccc(C(=O)N[C@H]4CC(C)(C)Oc5ccccc54)cc32)C(=N)N1 [Example 312, (2S,4R)-2-[2-[2-(2-acetamidoethoxy)ethoxy]ethoxymethyl] -4-(4,4-diethyl-2-imino-6-oxo-hexahydropyrimidin-1-yl)-N-[(4S)-2,2-dimethylchroman-4-yl]chromane-6-carboxamide] | 53.9 |  |
| CCC1(CC)CC(=O)N([C@H]2C[C@H](COCCOCCOCCNC(=O)OC(C)(C)C)Oc3ccc(C(=O)N[C@H]4CC(C)(C)Oc5ccccc54)cc32)C(=N)N1 [Example 313, tert-butyl N-[2-[2-[2-[[(2R,4S)-4-(4,4-diethyl-2-imino-6-oxo-hexahydropyrimidin-l-yl)-6-[[(4S)-2,2-dimethylchroman-4-yl]carbamoyl]chroman-2-yl]methoxy]ethoxy]ethoxy]ethyl]carbamate] | 260 |  |
| CCC1(CC)CC(=O)N([C@@H]2C[C@@H](COCCOCCOCCNC(=O)OC(C)(C)C)Oc3ccc(C(=O)N[C@H]4CC(C)(C)Oc5ccccc54)cc32)C(=N)N1 [Example 314, tert-butyl N-[2-[2-[2-[[(2S,4R)-4-(4,4-diethyl-2-imino-6-oxo-hexahydropyrimidin-l-yl)-6-[[(4S)-2,2-dimethylchroman-4-yl]carbamoyl]chroman-2-yl]methoxy]ethoxy]ethoxy]ethyl]carbamate] | 7.3 |  |
| CC(C)C[C@H](NC(=O)[C@H]1O[C@@H]1C(=O)O)C(=O)NCCCCN=C(N)N [Example E64] |  | ASP cleavage (p87 to p47) by PMIX ([2]; treated parasites): processed into a 47 kDa polypeptide (p47); PMIX processing to 55 kDa (p55) protein (autocatalytic cleavage) ([2]; treated parasites): not inhibited; RAP1 processing (p87 to p82 and p69) by PMIX and SUB1 ([2]; treated parasites / merozoites): processed normally by PMIX and SUB1; SERAS processing [3]: does not affect SERAS processing |
| (4R)-4-(4,4-diethyl-2-imino-6- oxo-hexahydropyrimidin-1- yl)-N-[2-(hydroxymethyl)- methyl-3H-benzofuran-3- yl]chromane-6-carboxamide [Example 176B] |  | EC50 [1]: 7.8 nM |
